Results from patent US12497371B2, “DRP-1 inhibitors as therapeutic agents” (The Florida International University Board of Trustees, priority 2023, dated 2025).

What was measured:
complex I = details: background statement; cited from earlier work
Drp1 GTPase = details: background statement; cited from earlier work
lung EC = experiment: LPS (TLR4)-dependent mitochondrial fission in lung EC; format: cell-based; details: LPS 2 EU/ml, 4 h; FIG. 1C
Protocol: TLR^4 ligation with LPS (2 EU/ml, 4 h) also increases mitochondrial fission and this is blocked by the putative Drp1 inhibitor, mdivi-1 (1C). Data are mean±SEM. N=3-10. P<0.05 vs. control.
Using immunofluorescence microscopy, increased mitochondrial localization of Drp1 was observed (FIG. 1B).

[1] = system: cardiac ischemia-reperfusion injury; details: background statement; cited from earlier work
cell proliferation = details: background statement; cited from earlier work
lung cancer tumor = details: xenograft mouse model; background statement; cited from earlier work
dynamin 1 = target: T1, dynamin 1 (Homo sapiens, UniProt Q05193); details: background statement; cited from earlier work
T1 sequence (Q05193 1-864): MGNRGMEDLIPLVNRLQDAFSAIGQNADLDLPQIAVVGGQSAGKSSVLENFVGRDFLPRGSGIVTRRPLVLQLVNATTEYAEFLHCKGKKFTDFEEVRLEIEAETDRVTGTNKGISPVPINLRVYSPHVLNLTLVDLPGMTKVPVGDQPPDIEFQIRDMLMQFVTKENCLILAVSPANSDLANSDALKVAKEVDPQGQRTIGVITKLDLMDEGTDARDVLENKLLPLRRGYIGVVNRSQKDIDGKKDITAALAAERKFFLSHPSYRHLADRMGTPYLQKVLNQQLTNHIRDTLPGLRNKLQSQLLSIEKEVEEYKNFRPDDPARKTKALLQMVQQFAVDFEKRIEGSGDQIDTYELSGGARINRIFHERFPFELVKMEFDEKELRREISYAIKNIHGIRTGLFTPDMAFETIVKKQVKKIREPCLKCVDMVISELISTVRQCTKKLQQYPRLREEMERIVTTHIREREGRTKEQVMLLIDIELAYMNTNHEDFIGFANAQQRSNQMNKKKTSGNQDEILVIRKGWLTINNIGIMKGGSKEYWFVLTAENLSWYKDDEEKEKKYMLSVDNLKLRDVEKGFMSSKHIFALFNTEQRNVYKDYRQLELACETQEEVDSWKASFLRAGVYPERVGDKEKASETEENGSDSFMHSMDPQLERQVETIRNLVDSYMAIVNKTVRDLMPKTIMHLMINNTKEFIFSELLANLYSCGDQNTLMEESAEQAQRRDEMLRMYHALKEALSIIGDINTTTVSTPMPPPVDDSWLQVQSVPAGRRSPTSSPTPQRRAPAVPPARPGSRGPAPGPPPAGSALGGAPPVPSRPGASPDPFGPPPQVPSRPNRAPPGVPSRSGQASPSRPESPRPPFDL

dynamin 2 = target: T2, dynamin 2 (Homo sapiens, UniProt P50570); details: background statement; cited from earlier work
T2 sequence (P50570 1-870): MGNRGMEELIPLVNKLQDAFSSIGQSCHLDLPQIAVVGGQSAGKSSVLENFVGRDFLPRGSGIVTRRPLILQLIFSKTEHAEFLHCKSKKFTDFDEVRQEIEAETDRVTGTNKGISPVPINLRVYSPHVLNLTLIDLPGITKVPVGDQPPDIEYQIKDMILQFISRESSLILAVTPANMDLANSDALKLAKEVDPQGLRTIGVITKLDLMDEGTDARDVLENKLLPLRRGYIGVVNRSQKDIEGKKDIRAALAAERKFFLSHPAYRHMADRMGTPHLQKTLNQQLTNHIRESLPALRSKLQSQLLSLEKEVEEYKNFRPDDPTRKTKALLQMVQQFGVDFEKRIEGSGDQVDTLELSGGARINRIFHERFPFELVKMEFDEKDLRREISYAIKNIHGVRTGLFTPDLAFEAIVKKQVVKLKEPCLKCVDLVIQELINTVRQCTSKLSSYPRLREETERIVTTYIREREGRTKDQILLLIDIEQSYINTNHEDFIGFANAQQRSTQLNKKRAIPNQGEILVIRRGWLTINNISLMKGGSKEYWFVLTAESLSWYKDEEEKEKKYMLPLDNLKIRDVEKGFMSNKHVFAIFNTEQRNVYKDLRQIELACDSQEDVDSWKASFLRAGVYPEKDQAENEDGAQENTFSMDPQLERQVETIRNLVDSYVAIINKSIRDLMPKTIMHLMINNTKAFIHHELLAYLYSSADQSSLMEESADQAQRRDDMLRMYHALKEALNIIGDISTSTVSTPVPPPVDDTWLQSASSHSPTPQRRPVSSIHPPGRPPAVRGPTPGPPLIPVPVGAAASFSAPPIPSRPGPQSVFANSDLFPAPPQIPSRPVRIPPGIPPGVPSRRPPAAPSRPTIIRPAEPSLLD

[2] = system: eNAMPT-mediated mitochondrial fission; experiment: eNAMPT-mediated mitochondrial fission; format: cell-based; details: FIG. 5A
Protocol: (§1) FIGS. 5A-5C show the validation of novel Drp1 inhibitors as therapeutics against VILI. Three novel Drp1 inhibitors identified in the Drp1 GTPase assay were tested for their ability to attenuate eNAMPT-mediated mitochondrial fission (5A). One of the compounds CTS2444-32 was further tested in mice exposed to high tidal mechanical ventilation (40 mL/kg, PEEP=5 cm H2O, BR=75 bpm, 4 h). […] Values are mean±SEM, n=4. *P<0.05 vs. spontaneously breathing control, †P<0.05 vs. DMSO+VILI.
Three lead compounds (FIG. 4) were selected for further testing. These compounds are referred to as CTS (Center for Translational Science) 2444-19, CTS2444-20, and CTS2444-32. These compounds were examined for their ability to prevent eNAMPT-mediated mitochondrial fission.

mouse primary microglia = experiment: Paraquat-treated primary microglia, qPCR of inflammatory mRNA; format: cell-based; details: 6 h
Protocol: Microglia cells were treated with paraquat (PQ) in the presence or absence of compound 2444-32. The mRNA levels of IL-1β and RelA were analyzed. Microglia isolated from Drp1+/− pups was used as a positive control.
Neuroinflammation is commonly observed in Parkinson's disease (PD) and other neurodegenerative diseases. The role of activated microglia in causing neuroinflammation by upregulating the levels of pro-inflammatory cytokines such as IL-1β and relA is implicated in PD. The protective effects of one lead compound (2444-32) was evaluated using mouse primary microglia isolated from newborn pups. As shown in the FIG. 7, these cells were treated for with paraquat (PQ), a herbicide that has been linked to increasing the risk of developing PD, in the presence or absence of compound 2444-32. After 6 h, RNA was isolated for qPCR analysis. There was a dramatic increase in the levels of IL-1β and RelA mRNA. […] As a positive control model for a partial loss of Drp1 function, microglia isolated from Drp1+/− pups was used, which express approximately 50% of Drp1 as compared to their wild-type littermates. Significant reduction in neuroinflammation was also detected in these mutant microglia treated with PQ, indicating the protective effects of 2444-32 was most likely mediated through reduced Drp1 function, not off-target effects.

[3] = system: ventilator-induced lung injury (VILI); experiment: VILI model: mice exposed to high tidal mechanical ventilation; format: in vivo; details: 10 mg/kg, i.p., 2 h
Protocol: as §1
CTS2444-32 (10 mg/kg, i.p., 2 h) attenuated the VILI-mediated increase in the levels of TNFα (6A), IL-6 (6B), IL-18 (6C), GROα, (6D), MIP-1α (6E), MIP-1β(6F), MCP-1 (6G), MCP-3 (6H), and IL-12p70 (6I) in the BALF. Values are mean±SEM, n=4. *P<0.05 vs. spontaneously beathing control, †P<0.05 vs. DMSO+VILI.
To validate Drp1 as a therapeutic target, four preclinical VILI/ARDS models are used: i) VILI; ii) a “two-hit” model of polymicrobial sepsis (cecal ligation and puncture, CLP) in addition to mechanical ventilation; iii) a “two-hit” COV19-pneumonia model consisting of the delivery of the COVID19 spike protein combined with mechanical ventilation and iv) the ARDS-like extended lung inflammation model in which the mice are exposed long-term to LPS. Therapeutic agents are given before the initiation of injury in the VILI-only model or at the beginning of mechanical ventilation in the “two-hit” models, or 4 d after LPS exposure in the extended lung inflammation model to mimic the situation of a critically ill patient in the ICU.

LUHMES cells = experiment: α-synuclein PFF aggregation in LUHMES cells (pS129 immunostaining); format: cell-based, human; details: PFF 24 h, then 20 μM compound for 48 h
Protocol: To determine the therapeutic potential of compound 2444-32 against α-synuclein, human dopaminergic neuronal cells (LUHMES cells) were treated with human α-synuclein pre-formed fibrils (PFF). After 24 h incubation, cell culture media containing PFF was removed and replaced with fresh media containing 20 μM of compound 2444-32 or vehicle control. Cells were incubated for a further 48 h before having media removed and processed for immunostaining for pS129 α-synuclein, a pathogenic form of α-synuclein. α-synuclein protein aggregates were then quantified using the IMARIS (Oxford instruments) software.

Structure (SMILES): COc1cc(-n2c(=S)[nH]c3ccccc3c2=O)c(Cl)cc1Cl [mdivi-1]
- inhibition of complex I (complex I): reversible inhibitor
- inhibition of Drp1 GTPase activity (Drp1 GTPase): weak and non-specific inhibitor
- TLR4-dependent mitochondrial fission (lung EC): decreases TLR4-dependent mitochondrial fission

Structure (SMILES): O=C1c2ccncc2C(=O)c2c1[nH]c1ccccc21 [Drpitor1a]
- protection against cardiac ischemia-reperfusion injury [1]: protect against cardiac ischemia-reperfusion injury
- cell proliferation (cell proliferation): reduce cell proliferation
- lung cancer tumor growth (lung cancer tumor): suppress lung cancer tumor growth

Structure (SMILES): O=C(N/N=C/c1ccc(O)c(O)c1)c1cc2ccccc2cc1O [Dynasore]
- inhibition of dynamin 1 (dynamin 1): blocks
- inhibition of dynamin 2 (dynamin 2): blocks

Structure (SMILES): CCCCNc1nc(CN2CCN(C(=O)CC3CC4CCC3C4)CC2)cs1 (centres unmarked) [Compound 2444-20]
- increase in fission induced by eNAMPT [2]: prevent the increase in fission induced by eNAMPT

Structure (SMILES): O=C(Cc1ccc(Cl)c(Cl)c1)N1CCN(Cc2csc(NCC3(c4ccccc4)CC3)n2)CC1 [Compound 2444-19]
- increase in fission induced by eNAMPT [2]: not

Structure (SMILES): O=C(CC1CC2CCC1C2)N1CCN(Cc2csc(NCC3CCC3)n2)CC1 (centres unmarked) [Compound 2444-32]
- paraquat-induced increase in IL-1β mRNA (mouse primary microglia): significantly attenuated
- paraquat-induced increase in RelA mRNA (mouse primary microglia): significantly attenuated
- VILI-mediated increase in TNFα in BALF ([3]; FIG. 6A): attenuated
- VILI-mediated increase in IL-6 in BALF ([3]; FIG. 6B): attenuated
- VILI-mediated increase in IL-18 in BALF ([3]; FIG. 6C): attenuated
- VILI-mediated increase in GROα in BALF ([3]; FIG. 6D): attenuated
- VILI-mediated increase in MIP-1α in BALF ([3]; FIG. 6E): attenuated
- VILI-mediated increase in MIP-1β in BALF ([3]; FIG. 6F): attenuated
- VILI-mediated increase in MCP-1 in BALF ([3]; FIG. 6G): attenuated
- VILI-mediated increase in MCP-3 in BALF ([3]; FIG. 6H): attenuated
- VILI-mediated increase in IL-12p70 in BALF ([3]; FIG. 6I): attenuated
- total cell counts in bronchoalveolar lavage (BAL) fluid ([3]; high tidal ventilation 40 mL/kg, 4 h, FIG. 5B): decreases
- protein in bronchoalveolar lavage (BAL) fluid ([3]; high tidal ventilation 40 mL/kg, 4 h, FIG. 5C): decreases
- lung injury ([3]; mice exposed to VILI): decreases lung injury
- increase in fission induced by eNAMPT [2]: prevent the increase in fission induced by eNAMPT
- α-synuclein aggregation (puncta) (LUHMES cells): significantly reduced
